Consider 19 compounds from PMC9465256, “Discovering monoacylglycerol lipase inhibitors by a combination of fluorogenic substrate assay and activity-based protein profiling” (Frontiers in Pharmacology, 2022).

Format in all cases: biochemical
Assay [1] deals with T1, human MAGL (Homo sapiens, UniProt Q99685).
T1 construct: expressed in transfected cells; host or cells: HEK293T (transient transfection; membrane fraction)
T1 sequence (Q99685 1-303): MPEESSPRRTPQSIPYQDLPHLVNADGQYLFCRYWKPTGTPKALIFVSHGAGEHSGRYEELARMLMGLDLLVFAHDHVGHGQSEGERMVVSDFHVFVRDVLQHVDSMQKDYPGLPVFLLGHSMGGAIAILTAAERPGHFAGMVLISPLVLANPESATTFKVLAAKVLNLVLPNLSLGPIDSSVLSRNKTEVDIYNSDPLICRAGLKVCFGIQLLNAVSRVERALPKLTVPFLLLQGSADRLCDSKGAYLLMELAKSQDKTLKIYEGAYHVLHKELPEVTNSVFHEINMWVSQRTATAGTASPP
Kind of assay: MAGL activity assay (AA-HNA fluorogenic substrate). As to conditions: read-out: MAGL Inhibition (%). The protocol: (§1) HEK293T cells were cultured at 37°C under 5% CO2 in a DMEM medium with stable glutamine and phenolred, containing 10% fetal bovine serum (FBS, Gibco), penicillin, and streptomycin. The cells were passaged every 2–3 days by resuspension in the medium at ∼90% confluence. The membranes used in this study were prepared from transiently transfected HEK293T cells. Briefly, 1 day prior to transfection, ∼10^7 cells were seeded in 15 cm plates, and then the cells were transfected by the addition of a mixture of polyethyleneimine and plasmid DNA (3:1, 60, and 20 µg) in 2 ml of medium (without serum). Of note, the empty pcDNA3.1 vector was used in the Mock-control. After 24 h, the medium was removed and the cells were refreshed with fresh medium. After 72 h, the cells were harvested by suspending in 20 ml of medium, and the supernatant was removed by centrifugation for 10 min at 1,000 rpm. The cell pellet was flash frozen in liquid nitrogen and stored at −80°C until use. Subsequently, the cell pellets were suspended in lysis buffer (30 mM Tirs, pH 7.5, 1 mM MgCl2, 25 U/ml Benzonase), which was homogenized by sonication (3 × 10 bursts) and incubated for 30 min on ice. The membrane fractions overexpressing MAGL/ABHD6/ABHD12 were separated by ultracentrifuge (100,000 g, 30 min, 4 C). The protein concentration was determined with a Qubit protein assay (Invitrogen). The protein samples were quickly frozen in liquid nitrogen and stored at −80 C until use.
The MAGL activity assay is based on the hydrolysis of 2-arachidonoylglycerol-based fluorogenic substrate by MAGL-overexpressing membrane preparations from transiently transfected HEK293T cells. In brief, the reactions were performed in HEPES buffer (40 mM HEPES, pH 7.5, 0.1 mg/ml BSA) in black, flat bottom 96-well plates. […] After the incubation of the inhibitor-protein complex for 30 min, 10 µl of the fluorogenic substrate (AA-HNA, 200 µM) was added and fluorescence was measured in 1 min intervals for 30 min on a plate reader (BioTek). […] All the measurements were performed in N = 2, n = 2 for inhibitors and N = 2, n = 4 for controls with Z′ value ≥0.6. The slope is determined in 5–15 min for all the experiments.

The target in assay [2] is T2, human ABHD6 (Homo sapiens, UniProt Q9BV23).
T2 construct: expressed in transfected cells; host or cells: HEK293T (transient transfection; membrane fraction)
T2 sequence (Q9BV23 1-337): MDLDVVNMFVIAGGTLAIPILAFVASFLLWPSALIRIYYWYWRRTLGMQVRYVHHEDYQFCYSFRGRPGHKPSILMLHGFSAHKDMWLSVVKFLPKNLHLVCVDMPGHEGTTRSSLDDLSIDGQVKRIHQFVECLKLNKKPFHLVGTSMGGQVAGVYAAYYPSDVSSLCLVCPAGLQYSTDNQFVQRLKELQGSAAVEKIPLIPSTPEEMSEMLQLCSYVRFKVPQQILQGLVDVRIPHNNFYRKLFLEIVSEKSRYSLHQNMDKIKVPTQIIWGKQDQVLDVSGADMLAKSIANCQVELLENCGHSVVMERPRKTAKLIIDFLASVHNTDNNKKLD
The assay can be described thus: ABHD6 activity assay (AA-HNA fluorogenic substrate). The protocol: as §1
The MAGL activity assay is based on the hydrolysis of 2-arachidonoylglycerol-based fluorogenic substrate by MAGL-overexpressing membrane preparations from transiently transfected HEK293T cells. In brief, the reactions were performed in HEPES buffer (40 mM HEPES, pH 7.5, 0.1 mg/ml BSA) in black, flat bottom 96-well plates. The final protein concentration of membrane fractions from overexpressing human MAGL HEK293T cells was 12.5 μg/ml 5 µl of inhibitors were added from×40 concentrated DMSO stocks in the 96-well plate containing 145 µl assay buffer, followed by the addition of 40 µl of the protein (12.5 μg/ml). After the incubation of the inhibitor-protein complex for 30 min, 10 µl of the fluorogenic substrate (AA-HNA, 200 µM) was added and fluorescence was measured in 1 min intervals for 30 min on a plate reader (BioTek). Final assay concentrations: 12.5 μg/ml MAGL, […], and […] in the total volume of 200 µl. All the measurements were performed in N = 2, n = 2 for inhibitors and N = 2, n = 4 for controls with Z′ value ≥0.6. The slope is determined in 5–15 min for all the experiments.
The ABHD6 activity assay is based on the same principle as the MAGL activity assay described earlier, but with human ABHD6 overexpressing membrane preparations at a final protein concentration of 50 μg/ml and 200 µM AA-HNA. Other conditions are the same as those of the MAGL activity assay.

The target in assay [3] is T3, human ABHD12 (Homo sapiens, UniProt Q8N2K0).
T3 construct: expressed in transfected cells; host or cells: HEK293T (transient transfection; membrane fraction)
T3 sequence (Q8N2K0 1-398): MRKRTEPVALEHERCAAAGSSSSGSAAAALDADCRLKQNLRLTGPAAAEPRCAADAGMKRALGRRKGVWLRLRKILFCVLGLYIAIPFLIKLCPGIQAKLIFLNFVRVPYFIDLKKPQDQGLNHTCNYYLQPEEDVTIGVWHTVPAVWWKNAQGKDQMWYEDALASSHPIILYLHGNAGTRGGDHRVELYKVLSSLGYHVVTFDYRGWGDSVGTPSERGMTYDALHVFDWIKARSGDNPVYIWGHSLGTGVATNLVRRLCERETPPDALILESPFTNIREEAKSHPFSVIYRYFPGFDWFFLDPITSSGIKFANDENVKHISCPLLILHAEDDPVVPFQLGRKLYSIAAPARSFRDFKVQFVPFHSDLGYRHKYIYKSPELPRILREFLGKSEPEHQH
The assay can be described thus: ABHD12 activity by competitive ABPP with FP-TAMRA. The note with it: read-out: ABHD12 Inhibition (%). How it is done:
as §1
The ABHD12 activity assay is based on competitive activity-based protein profiling (ABPP) with human ABHD12 overexpressing membrane fractions. Briefly, the membrane proteome (1 mg/ml, 20 µl) was incubated at room temperature with 0.5 µl DMSO (vehicle) or inhibitor for 30 min. Subsequently, the samples were treated with the activity-based probe FP-TAMRA (250 nM, final concentration) for 20 min. The reactions were then quenched by 10 µl sample buffer (×4) (final concentrations: 60 mM Tris, pH 6.8, 2% (w/v) SDS, 10% (v/v) glycerol, 5% (v/v) β-mercaptoethanol, 0.01% (v/v) bromophenol blue). The samples were directly loaded and resolved on SDS-PAGE gel (10% acrylamide), which were then scanned using a ChemiDoc MP system (Cy3 settings, BioRad).

The mark [4] stands for this setting: 100 µM, AA-HNA substrate assay, Supplementary Table 1.
Setting [5] is: 100 µM, AA-HNA substrate assay, Supplementary Table 2, read-out: ABHD6 Inhibition (%).
[6] abbreviates: 100 µM compound, competitive ABPP with probe FP-TAMRA (250 nM).

For the compound `O=c1c2ccccc2nc2n1CCc1c-2[nH]c2ccccc12` [compound 71, Rutaecarpine], the activity at 100 µM in assay [1] (setting [4]) worked out at 99.2%; in assay [2] (setting [5]), 111%; in assay [3] (setting [6]) it was 97%.
As to `O=C(/C=C/c1ccc(O)c(O)c1)O[C@@H]1C[C@](O)(C(=O)O)C[C@@H](O)[C@H]1O` [compound 20, Chlorogenic acid], the activity at 100 µM in assay [1] (setting [4]) turned out to be 95.2%; in assay [2] (setting [5]) it was 102%; in assay [3] (setting [6]), 78.1%.
For `C=CCc1ccc(O)c(-c2ccc(O)c(CC=C)c2)c1` [compound 39, Honokiol], the values for the activity at 100 µM in assay [1] (setting [4]), in assay [2] (setting [5]) and in assay [3] (setting [6]) were 111%, 83.9% and 104%, respectively.
As to `O=C(c1cccc(-c2ccc(-c3cn(C(=O)N4CCCCC4c4ccccc4)nn3)cc2)c1)N1CCCCC1` (stereo not shown) [KT185, reference compound], the “effect on fluorescent signal of AA-HNA hydrolysis by ABHD6” value in assay [2] (10 µM) is “blocked”.
For `O=c1cccc2n1C[C@@H]1CNC[C@H]2C1` [compound 25, Cytisine], the percent inhibition at 100 µM in assay [1] was determined as 99%; in assay [3], 87.9%. The percent inhibition of ABHD6 at 100 µM in assay [2] (read-out: ABHD6 Inhibition (%)) came out at 104%.
Consider `C[C@H]1[C@H](OC(=O)CCC(=O)O)O[C@@H]2O[C@@]3(C)CC[C@H]4[C@H](C)CC[C@@H]1[C@@]24OO3` [compound 11, Artesunate], for which the activity at 100 µM was 106% in assay [1] (setting [4]), 46.5% in assay [2] (setting [5]) and 56.2% in assay [3] (setting [6]).
Consider `CC(=O)c1c(O)c(C)c(O)c2c1OC1=CC(=O)C(C(C)=O)C(=O)C12C` [compound 3, D-Usnic Acid], for which the activity in assay [1] (setting [4]) was 85.6%; in assay [2] (setting [5]), 97.9%; in assay [3] (setting [6]), 68.8%.
For the compound `COc1ccc([C@@H]2CC(=O)c3c(O)cc(O[C@@H]4O[C@H](CO)[C@@H](O)[C@H](O)[C@H]4O[C@@H]4O[C@@H](C)[C@H](O)[C@@H](O)[C@H]4O)cc3O2)cc1O` [compound 57, Neohesperidin], the activity was 86.8% in assay [1] (setting [4]), 98.7% in assay [2] (setting [5]) and 75.6% in assay [3] (setting [6]).
With `C=C1CC[C@@H]2[C@](C)(CO)[C@H](O)CC[C@@]2(C)[C@@H]1C/C=C1/C(=O)OC[C@H]1O` [compound 8, Andrographolide], the activity at 100 µM in assay [1] (setting [4]) is 83.5%; in assay [2] (setting [5]) it was 81.8%; in assay [3] (setting [6]) it was 61.9%.
With `O=C1CCC[C@@H]2[C@H]3CCCN4CCC[C@@H](CN12)[C@@H]34` [compound 49, (+)-Matrine], the activity worked out at 85.4% in assay [1] (setting [4]), 98.3% in assay [2] (setting [5]) and 84.4% in assay [3] (setting [6]).
Regarding `COc1ccc(-c2coc3cc(O)ccc3c2=O)cc1` [compound 31, Formononetin], the figures for the activity at 100 µM in assay [1] (setting [4]), in assay [2] (setting [5]) and in assay [3] (setting [6]) were 103%, 94.1% and 77.5%, respectively.
As for `COc1ccc([C@@H]2CC(=O)c3c(O)cc(O[C@@H]4O[C@H](CO[C@@H]5O[C@@H](C)[C@H](O)[C@@H](O)[C@H]5O)[C@@H](O)[C@H](O)[C@H]4O)cc3O2)cc1O` [compound 38, Hesperidin], the activity in assay [1] (setting [4]) worked out at 91.4%; in assay [2] (setting [5]), 94.3%; in assay [3] (setting [6]), 76.6%.
With `C[C@@H]1O[C@@H](O)[C@H](O)[C@H](O)[C@H]1O` [compound 45, L-(+)-Rhamnose Monohydrate], the activity in assay [1] (setting [4]) came out at 81.1%; in assay [2] (setting [5]) it was 98.8%; in assay [3] (setting [6]), 80.6%.
As for `OCc1c[nH]c2ccccc12` [compound 42, Ndole-3-carbinol], the activity in assay [1] (setting [4]) is 70.6%; in assay [2] (setting [5]) it was 101%; in assay [3] (setting [6]), 80.9%.
`COc1c(O)cc2c(c1O)[C@@H]1O[C@H](CO)[C@@H](O)[C@H](O)[C@H]1OC2=O` [compound 16, Bergenin]: the activity at 100 µM in assay [1] (setting [4]) stood at 124%; in assay [2] (setting [5]), 110%; in assay [3] (setting [6]), 88%.
As for `O=c1c(O)c(-c2ccc(O)cc2O)oc2cc(O)cc(O)c12` [compound 51, Morin hydrate], the results for the activity in assay [1] (setting [4]), in assay [2] (setting [5]) and in assay [3] (setting [6]) were 49.4%, 99.4% and 31.6%, respectively.
With Myricitrin [compound 53], the percent inhibition is 93.1% in assay [1] (setting [4]) and 70% in assay [3] (setting [6]). Besides, the percent inhibition of ABHD6 in assay [2] (read-out: ABHD6 Inhibition (%), 100 µM, AA-HNA substrate assay, Supplementary Table 2) stood at 105%.
Turning to `O=c1c(O)c(-c2ccc(O)cc2)oc2cc(O)cc(O)c12` [compound 43, Kaempferol], the activity at 100 µM in assay [1] (setting [4]) amounted to 32.2%; in assay [2] (setting [5]), 84.3%; in assay [3] (setting [6]), 30.2%.
In the case of `Cc1cc(O)c2c(c1)C(=O)c1cc(O)cc(O)c1C2=O` [compound 28, Emodin], the activity at 100 µM came out at 63.2% in assay [1] (setting [4]), 87.9% in assay [2] (setting [5]) and 67.6% in assay [3] (setting [6]).
